53 compounds from patent publication US20040171073A1, “Compounds for modulation of cholesterol transport” (Massachusetts Institute of Technology, priority 2002, published 2004) can be followed below.

The target in the assay is T1, murine SR-BI (Mus musculus, UniProt Q61009).
T1 construct: expressed in transfected cells; host or cells: ldlA-7 (LDL receptor deficient Chinese hamster ovary cells)
T1 sequence (Q61009 1-509): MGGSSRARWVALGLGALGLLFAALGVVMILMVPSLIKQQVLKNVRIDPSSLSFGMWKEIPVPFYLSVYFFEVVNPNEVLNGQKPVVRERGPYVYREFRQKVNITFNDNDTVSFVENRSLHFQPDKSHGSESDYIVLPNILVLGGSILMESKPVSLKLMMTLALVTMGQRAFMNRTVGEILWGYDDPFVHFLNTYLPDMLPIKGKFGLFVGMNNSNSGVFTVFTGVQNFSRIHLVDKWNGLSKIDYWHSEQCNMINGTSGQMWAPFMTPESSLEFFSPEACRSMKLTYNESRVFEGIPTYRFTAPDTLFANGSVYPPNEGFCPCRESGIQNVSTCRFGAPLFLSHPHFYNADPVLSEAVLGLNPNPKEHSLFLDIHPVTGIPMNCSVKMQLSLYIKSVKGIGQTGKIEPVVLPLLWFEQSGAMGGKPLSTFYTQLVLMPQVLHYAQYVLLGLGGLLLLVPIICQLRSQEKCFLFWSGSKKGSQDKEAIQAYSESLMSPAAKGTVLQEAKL
As to the kind of experiment: Uptake of DiI from DiI-HDL by ldlA[mSR-BI] cells (high throughput screen and concentration dependence). Format: cell-based.

Setting [1] is: DiI uptake from DiI-HDL, compounds at nominal 10 micromolar, ldlA[mSR-BI] cells.

For `Nc1c(C(=O)c2ccc(Br)cc2)sc2nc(-c3ccccc3)c3c(c12)CCCC3` [MIT 9952-221], the “ENDOHDL Test 1” value is listed as 0.62 and the “ENDOHDL Test 2” value was 0.59.
Consider `CCCCC1(OC(=O)Nc2ccc(Cl)cc2)CCCCC1` [MIT 9952-196], for which the “ENDOHDL Test 1” value was 0.63 and the “ENDOHDL Test 2” value is on record as 0.6.
Take `CC(C)=C/C(=N\Nc1ccc([N+](=O)[O-])cc1[N+](=O)[O-])C1CC=CCC1` (stereo not shown) [MIT 9952-288]: under setting [1], the “ENDOHDL Test 1” value is given as 0.59 and the “ENDOHDL Test 2” value is listed as 0.52.
Take `O=C(NC(NC(=S)Nc1ccc(Cl)cc1Cl)C(Cl)(Cl)Cl)c1ccco1` (stereo not shown) [MIT 9952-106]: the “ENDOHDL Test 1” value stood at 0.6 and the “ENDOHDL Test 2” value was determined as 0.53.
Turning to `COc1ccc(N/N=C2\C(=O)ON=C2c2ccc(OC)cc2)cc1` [MIT 9952-272], the “ENDOHDL Test 1” value is 0.61 and the “ENDOHDL Test 2” value was determined as 0.51.
The like results for `CC(=O)OCc1c(C)cc(C)c(/C=N/Nc2ccc([N+](=O)[O-])cc2)c1C` [MIT 9952-273] were, in that order, 0.51 and 0.48.
Regarding `COc1ccc(C(=O)Nc2cccc(C(F)(F)F)c2)cc1OC` [MIT 9952-259], the “ENDOHDL Test 1” value is on record as 0.59 and the “ENDOHDL Test 2” value is 0.55.
For the compound `Brc1ccc2c(c1)OCCSCCOCCOCCSCCO2` [MIT 9952-244], the “ENDOHDL Test 1” value stood at 0.56 and the “ENDOHDL Test 2” value is recorded as 0.54.
Take `NC(=O)N/N=C/c1ccc(-c2ccc([N+](=O)[O-])cc2)o1` [MIT 9952-126]: the “ENDOHDL Test 1” value amounted to 0.55 and the “ENDOHDL Test 2” value was 0.53.
In the case of `C=CCN1C(=O)[C@H]2Cc3c([nH]c4ccccc34)[C@@H](c3ccc4c(c3)OCO4)N2C1=S` [MIT 9952-179], the “ENDOHDL Test 1” value was found to be 0.54 and the “ENDOHDL Test 2” value turned out to be 0.54.
As for `NS(=O)(=O)c1ccc(N=N/C(=N/Nc2ccc(S(N)(=O)=O)cc2)c2ccccc2)cc1` [MIT 9952-204], the “ENDOHDL Test 1” value amounted to 0.55 and the “ENDOHDL Test 2” value stood at 0.62.
On the same counts, the results for `C/C(CS(=O)(=O)c1ccccc1)=N/NC(N)=S` [MIT 9952-271] are 0.59 and 0.54.
Regarding `O=C1CC(N2CCOCC2)C(=O)N1c1ccc(Br)cc1` (stereo not shown) [MIT 9952-3], the “ENDOHDL Test 1” value stood at 1.32 and the “ENDOHDL Test 2” value was found to be 1.17.
For the compound `O=C(/C=C/C=C(Cl)Cl)c1ccc2c(c1)OCO2` [MIT 9952-65], the “ENDOHDL Test 1” value turned out to be 1.29 and the “ENDOHDL Test 2” value came out at 1.24.
The like results for `Nc1cc2cccnc2c2ncccc12` [MIT 9952-230] were, in that order, 0.61 and 0.51.
For the compound `Clc1ccc(N2CCC/C2=N\c2c3c(nc4ccccc24)N(c2ccccc2)CC3)cc1Cl` [MIT 9952-305], under setting [1], the “ENDOHDL Test 1” value turned out to be 0.67 and the “ENDOHDL Test 2” value was 0.6.
For the compound `CCn1c2ccccc2c2cc(/C=N/NC(N)=S)ccc21` [MIT 9952-211], the “ENDOHDL Test 1” value is listed as 0.59 and the “ENDOHDL Test 2” value is 0.56.
In the case of `COc1ccc([N+](=O)[O-])cc1NC(=O)c1ccccc1` [MIT 9952-338], under setting [1], the “ENDOHDL Test 1” value was 0.61 and the “ENDOHDL Test 2” value is 0.6.
`Cc1cc(O)nc2cc3oc4ccccc4c3cc12` [MIT 9952-322]: under setting [1], the “ENDOHDL Test 1” value is 0.79 and the “ENDOHDL Test 2” value stood at 0.86.
On the same counts, the results for `NCC[Se][Se]CCN` [MIT 9952-318] are 0.67 and 0.81.
As for `Cc1ccc(C(C)C)c(OCC(=O)Nc2cc([N+](=O)[O-])ccc2C)c1` [MIT 9952-153], the “ENDOHDL Test 1” value was found to be 0.6 and the “ENDOHDL Test 2” value amounted to 0.57.
The like results for `COc1ccc(COCC(Cl)CN2CCCCC2)cc1OC.Cl` (stereo not shown) [MIT 9952-159] were, in that order, 1.28 and 1.23.
On to `Cc1ccc(NC(=S)NC(NC(=O)c2ccccc2Cl)C(Cl)(Cl)Cl)cc1` (stereo not shown) [MIT 9952-201], for which the “ENDOHDL Test 1” value came out at 0.69 and the “ENDOHDL Test 2” value was 0.67.
In the case of `Cc1ccc2c(c1Br)/C(=N/NC(=O)Nc1ccccc1)C(=O)N2` [MIT 9952-130], the “ENDOHDL Test 1” value came out at 0.62 and the “ENDOHDL Test 2” value is listed as 0.65.
In the case of `Cc1cccc(C(=O)Nc2cccc(Cl)c2)c1` [MIT 9952-279], under setting [1], the “ENDOHDL Test 1” value is reported as 0.64 and the “ENDOHDL Test 2” value is on record as 0.63.
As for `COc1ccc(/C(C)=N/NC(=O)C2CC2(c2ccccc2)c2ccccc2)c(OC)c1` (stereo not shown) [MIT 9952-93], the “ENDOHDL Test 1” value came to 0.66 and the “ENDOHDL Test 2” value was 0.71.
As to `Cc1cccc(N2C(=O)CC(N3CCOCC3)C2=O)c1` (stereo not shown) [MIT 9952-80], the “ENDOHDL Test 1” value came out at 1.34 and the “ENDOHDL Test 2” value amounted to 1.2.
`Cc1nn(-c2ccccc2)c(Cl)c1/N=N/c1ccccc1` [MIT 9952-138]: the “ENDOHDL Test 1” value was 0.54 and the “ENDOHDL Test 2” value came to 0.63.
Regarding `Clc1ccc(/N=C/c2ccc3c(c2)OCO3)nc1` [MIT 9952-176], the “ENDOHDL Test 1” value is on record as 1.36 and the “ENDOHDL Test 2” value was determined as 1.17.
As for `O=C(Nc1ccc(C2Nc3ccc(SC(=O)c4ccc(Cl)cc4)c(Cl)c3S2)cc1)c1ccc(Cl)cc1` (stereo not shown) [MIT 9952-35], the “ENDOHDL Test 1” value is given as 0.56 and the “ENDOHDL Test 2” value was found to be 0.56.
In the case of `Cc1nc(-c2ccc([N+](=O)[O-])cc2)c(C(=O)Nc2ccccc2)s1` [MIT 9952-160], the “ENDOHDL Test 1” value was found to be 0.48 and the “ENDOHDL Test 2” value was 0.55.
The like results for `C/C(=N\NC(=O)c1ccc(-c2ccccc2)cc1)c1cccc(N)c1` [MIT 9952-164] were, in that order, 0.6 and 0.61.
For `COc1ccc(OC)c(NC(=O)c2cc([N+](=O)[O-])c(C)c([N+](=O)[O-])c2)c1` [MIT 9952-233], the “ENDOHDL Test 1” value is 0.59 and the “ENDOHDL Test 2” value came out at 0.33.
In the case of `O=C(Nc1sc2c(c1C(=O)NCCc1ccc(O)cc1)CCCC2)c1ccccc1` [MIT 9952-296], under setting [1], the “ENDOHDL Test 1” value is 0.63 and the “ENDOHDL Test 2” value was 0.61.
In the case of `CCCCCCC1CCC/C1=N\NC(N)=S` (stereo not shown) [MIT 9952-185], the “ENDOHDL Test 1” value is listed as 0.53 and the “ENDOHDL Test 2” value stood at 0.46.
Take `Cl.c1ccc(CCNC2CCCc3c2[nH]c2ccc(C4CCCCC4)cc32)cc1` (stereo not shown) [MIT 9952-258]: the “ENDOHDL Test 1” value is listed as 0.51 and the “ENDOHDL Test 2” value was found to be 1.0.
In the case of `CCN(CC(O)COc1ccccc1C(C)=O)S(=O)(=O)[O-].[Na+]` (stereo not shown) [MIT 9952-250], the “ENDOHDL Test 1” value was found to be 1.28 and the “ENDOHDL Test 2” value is on record as 1.24.
On to `Cc1ccc(N2SC(NS(=O)(=O)c3ccc(C)cc3)N=C2c2ccccc2)cc1` (stereo not shown) [MIT 9952-207], for which the “ENDOHDL Test 1” value is 1.28 and the “ENDOHDL Test 2” value worked out at 1.19.
Turning to `CCn1c(/C=C/C=C2\SCCN2C)[n+](CC)c2cc(Cl)ccc21` [MIT 9952-92], the “ENDOHDL Test 1” value came to 0.7 and the “ENDOHDL Test 2” value was found to be 0.63.
Take `COc1ccc2[nH]cc(CCN3CCOC3=O)c2c1` [MIT 9952-205]: the “ENDOHDL Test 1” value is 1.08 and the “ENDOHDL Test 2” value is recorded as 1.0.
`Cc1ccsc1/C=N/NC(=O)c1cccc([N+](=O)[O-])c1` [MIT 9952-228]: the “ENDOHDL Test 1” value was determined as 0.46 and the “ENDOHDL Test 2” value is 0.63.
As for `COc1ccc(C(=O)Nc2ccc(C(C)C)cc2)cc1OC` [MIT 9952-277], the “ENDOHDL Test 1” value came out at 0.66 and the “ENDOHDL Test 2” value is reported as 0.65.
For `Cc1ccc2c(c1)/C(=C/c1ccc([N+](=O)[O-])cc1)c1cccnc1-2` [MIT 9952-246], the “ENDOHDL Test 1” value came to 0.56 and the “ENDOHDL Test 2” value is reported as 0.52.
Consider `Nc1cc2cccnc2c2ncccc12` [MIT 9952-341], for which, under setting [1], the “ENDOHDL Test 1” value was determined as 0.61 and the “ENDOHDL Test 2” value is reported as 0.51.
Turning to `O=C(O)C(Cc1ccccc1)N1C(=O)CSC1=S` (stereo not shown) [MIT 9952-202], the “ENDOHDL Test 1” value is 1.23 and the “ENDOHDL Test 2” value was determined as 1.11.
Regarding `Cc1cc(C)c(/C=N/N=C/c2c(C)cc(C)cc2C)c(C)c1` [MIT 9952-287], under setting [1], the “ENDOHDL Test 1” value is on record as 1.18 and the “ENDOHDL Test 2” value was found to be 1.32.
As to `O=C(/C=C/c1cccc([N+](=O)[O-])c1)Nc1cccc(Cl)c1` [MIT 9952-291], under setting [1], the “ENDOHDL Test 1” value was 0.55 and the “ENDOHDL Test 2” value is on record as 0.51.
With `O=C1CC(S/C(=N\c2ccccc2)Nc2ccccc2)C(=O)N1c1cccc2ccccc12` (stereo not shown) [MIT 9952-171], the “ENDOHDL Test 1” value came to 0.58 and the “ENDOHDL Test 2” value stood at 0.54.
As to `CC1(C)CC(=O)C(=Cc2c(Cl)ccc3ccccc23)C(=O)C1` [MIT 9952-157], the “ENDOHDL Test 1” value is reported as 1.26 and the “ENDOHDL Test 2” value is reported as 1.21.
On the same counts, the results for `CN(C)CC(=O)Nc1ccc2c(c1)Nc1ccccc1CC2.Cl` [MIT 9952-152] are 0.51 and 0.43.
With `CCn1c(C)c(-c2ccccc2)c2cc([N+](=O)[O-])ccc21` [MIT 9952-257], the “ENDOHDL Test 1” value is recorded as 0.66 and the “ENDOHDL Test 2” value was found to be 0.61.
Take `Cc1cc(C)c(CO)c(C)c1/C=N/Nc1ccc([N+](=O)[O-])cc1` [MIT 9952-283]: under setting [1], the “ENDOHDL Test 1” value is reported as 0.53 and the “ENDOHDL Test 2” value worked out at 0.48.
For `CCOC(=O)c1c(NC(=O)c2ccccc2C)sc2c1CCCC2` [MIT 9952-223], the “ENDOHDL Test 1” value is 0.64 and the “ENDOHDL Test 2” value amounted to 0.57.
